Like-named read-outs stand apart in the source and are kept apart here.
What was measured:
[1] = tested on: tadpole; experiment: Tadpole loss of righting reflex (LRR) and loss of swimming reflex (LSR); type: in vivo
[2] = molecular target: rat α1β2γ2L type GABAA receptors (Rattus norvegicus (Rat), UniProt P62813+P63138, INS375LLRMFSFK); experiment: Oocyte electrophysiology: potentiation of 2 μM GABA chloride currents and direct gating, Xenopus laevis oocytes; type: cell-based; settings: for ratio of currents measured in the presence/absence of added compound, 0.1 μM: 0.1 μM compound; for ratio of currents measured in the presence/absence of added compound, 0.1 μM / ratio of currents measured in the presence/absence of added compound, 1 μM / (gating) 10 μM: ratio of compound only current/2 μM GABA current / ratio of currents measured in the presence/absence of added compound, 10 μM: ± SEM; for ratio of currents measured in the presence/absence of added compound, 0.1 μM / ratio of currents measured in the presence/absence of added compound, 1 μM / ratio of currents measured in the presence/absence of added compound, 10 μM: N ≥ 4; for ratio of currents measured in the presence/absence of added compound, 1 μM: 1 μM compound; for (gating) 10 μM: ratio of compound only current/2 μM GABA current: 10 μM compound in the absence of GABA; for ratio of currents measured in the presence/absence of added compound, 10 μM: 10 μM compound
Description: The measured concentration of GABA, on average, gates about 4% of the maximum response of a cell. However, the sensitivity to GABA of the receptors, which determines the degree of steroid potentiation that can be measured, varied from one batch of oocytes to another.

[3] = molecular target: picrotoxin binding site on GABAA receptors; settings: for IC50: duplicate experiments in triplicate, ± SEM, read-out: IC50, inhibition of [35S]-TBPS binding
[4] = tested on: BALB/C mice; experiment: Anesthesia in mice, tail vein injection (loss of righting reflex); type: in vivo
Description: Anesthetic evaluations were performed in 7-8 week-old BALB/C mice, weighing approximately 20 g. Steroids were dissolved in 22.5% (w/v) 2-hydroxypropyl-β-cyclodextrin solution (Sigma-Aldrich) at a concentration of 1.6 mg/ml or 3.2 mg/ml and injected through the tail vein in volumes of 5 μl/g body weight. Doses (8 or 16 mg/kg) were calculated according to body weight. Animals were placed prone as soon as they stopped moving. Loss of LRR was defined as inability of mice to right themselves within 5 seconds after being placed in a prone position. […] Animals were placed on a warming blanket during the time that they were anesthetized. Each dose was administered to three or four mice and the results are presented as mean±standard error of the mean.

[5] = loss of righting reflex, ± SEM, read-out: Tadpole LRR EC50
[6] = loss of swimming reflex, None = all animals had a swimming response at 10 μM, read-out: Tadpole LSR EC50
[7] = loss of swimming reflex, None = all animals had a swimming response at 10 μM

Molecule	EC50 [1, 5] [nM]	EC50 [1, 6] [nM]	ratio of currents measured in the presence/absence of added compound, 0.1 μM ([2]; 2 μM GABA)	ratio of currents measured in the presence/absence of added compound, 1 μM ([2]; 2 μM GABA)	(gating) 10 μM: ratio of compound only current/2 μM GABA current [2]	ratio of currents measured in the presence/absence of added compound, 10 μM ([2]; 2 μM GABA)	IC50 [3] [nM]	also measured
C/C(C#N)=C1\CC[C@H]2[C@@H]3CC[C@H]4C[C@H](O)CC[C@]4(C)[C@H]3C(=O)C[C@]12C [Compound 6c, [3α,5α,17(20)Z]-3-Hydroxy-11-oxopregn-17(20)-ene-20-carbonitrile]	2710 ± 260	5480 ± 200						
CO[C@H]1C[C@@]2(C)[C@@H](CC[C@@H]3[C@@H]2CC[C@]2(C)/C(=C\C#N)CC[C@@H]32)C[C@@H]1O [Compound 16a, [2β,3α,5α,17(20)Z]-3-Hydroxy-2-methoxyandrost-17(20)-ene-21-nitrile]	29 ± 6	110 ± 1	2.14 ± 0.33	12.02 ± 2.54	0.40 ± 0.12	18.77 ± 5.16	28 ± 2	
[3α,5α,17(20)E]-3-(Acetyloxy)-11-oxopregn-17(20)-ene-20-carbonitrile [Compound 6d]	2090 ± 120	> 10000						
C[C@]12CC[C@@H](O)C[C@@H]1CC[C@@H]1[C@@H]2C(=O)C[C@]2(C)C(C=O)=CC[C@@H]12 [Compound 5a, (3α,5α)-3-Hydroxy-11-oxoandrost-16-ene-17-carboxaldehyde]	3220 ± 30							
CO[C@H]1C[C@]2(C)/C(=C\C#N)CC[C@H]2[C@@H]2CC[C@H]3C[C@H](O)CC[C@]3(C)[C@H]21 [Compound 17a, [3α,5α,11β,17(20)Z]-3-Hydroxy-11-methoxypregn-17(20)-ene-21-nitrile]	67 ± 3	173 ± 3	2.14 ± 0.28	10.28 ± 2.62	0.06 ± 0.07	11.20 ± 3.28	53 ± 7	
C[C@]12CC[C@@H](O)C[C@@H]1CC[C@@H]1[C@@H]2C(=O)C[C@]2(C)/C(=C\C#N)CC[C@@H]12 [Compound 6a, [3α,5α,17(20)Z]-3-Hydroxy-11-oxopregn-17(20)-ene-2′-nitrile]		5480 ± 200						potentiation of GABA-mediated currents ([2]; 2 μM GABA, 0.1-10 μM compound): strongly enhanced GABA-mediated currents; duration of anesthesia (loss of righting reflex) ([4]; 8 mg/kg): about 1.5 min; time to loss of movement and righting reflex ([4]; 8 mg/kg): 10 to 25 s; duration of anesthesia (loss of righting reflex) ([4]; 16 mg/kg): about 4 min; onset of loss of righting reflex ([4]; 16 mg/kg): immediate
CO[C@H]1C[C@]2(C)/C(=C/C#N)CC[C@H]2[C@@H]2CC[C@H]3C[C@H](O)CC[C@]3(C)[C@H]21 [Compound 17b, [3α,5α,11β,17(20)E]-3-Hydroxy-11-methoxypregn-17(20)-en-21-nitrile]	1190 ± 490	3170 ± 10	0.99 ± 0.02	1.07 ± 0.03	0.01 ± 0	3.68 ± 0.17	605 ± 139	
CC(=O)[C@H]1CC[C@H]2[C@@H]3CC[C@H]4C[C@H](O)CC[C@]4(C)[C@H]3C(=O)C[C@]12C [Compound 1, alphaxalone, reference compound]								duration of anesthesia (loss of righting reflex) ([4]; 16 mg/kg): about 4 min; recovery period from initial return of leg movement to righting and walking ([4]; 16 mg/kg): 1 to 2 min
C[C@]12CC[C@@H](O)C[C@@H]1CC[C@H]1[C@@H]3CC[C@H](C=O)[C@@]3(C)CC(=O)[C@@H]12 [Compound 5b, (3α,5α,17β)-3-Hydroxy-11-oxoandrostane-17-carboxaldehyde]	3980 ± 2430							
C[C@]12CC[C@@H](O)C[C@@H]1CC[C@@H]1[C@@H]2CC[C@]2(C)/C(=C/C#N)CC[C@@H]12 [Compound 14b, [3α,5α,17(20)E]-3-Hydroxypregn-17(20)-ene-21-nitrile]	1210 ± 410	> 10000	0.76 ± 0.05	1.30 ± 0.07	−0.14 ± 0.13	3.15 ± 0.38	501 ± 39	
C[C@]12CC[C@@H](O)C[C@H]1CC[C@@H]1[C@@H]2CC[C@]2(C)/C(=C/C#N)CC[C@@H]12 [Compound 15b, [(3α,5β,17(20)E]-3-Hydroxypregn-17(20)-ene-21-nitrile]	1210 ± 350	5480 ± 200	0.94 ± 0.02	1.24 ± 0.04	0.01 ± 0.01	4.83 ± 0.44	1200	
C[C@]12CC[C@@H](O)C[C@H]1CC[C@@H]1[C@@H]2C(=O)C[C@]2(C)/C(=C/C#N)CC[C@@H]12 [Compound 13b, [3α,5β,17(20)E]-3-Hydroxy-11-oxo-pregn-17(20)-ene-21-nitrile]	> 10000							Tadpole LSR EC50 [1, 7]: None
C[C@]12CC[C@@H](O)C[C@H]1CC[C@@H]1[C@@H]2C(=O)C[C@]2(C)/C(=C\C#N)CC[C@@H]12 [Compound 13a, [3α,5β,17(20)Z]-3-Hydroxy-11-oxo-pregn-17(20)-ene-21-nitrile]	> 10000							Tadpole LSR EC50 [1, 7]: None
CO[C@H]1C[C@@]2(C)[C@@H](CC[C@@H]3[C@@H]2CC[C@]2(C)/C(=C/C#N)CC[C@@H]32)C[C@@H]1O [Compound 16b, [2β,3α,5α,17(20)E]-3-Hydroxy-2-methoxyandrost-17(20)-ene-21-nitrile]	290 ± 50	2970	0.95 ± 0.15	1.34 ± 0.07	0.03 ± 0.14	4.81 ± 0.36	544 ± 87	
C[C@]12CC[C@@H](O)C[C@@H]1CC[C@@H]1[C@@H]2CC[C@]2(C)/C(=C\C#N)CC[C@@H]12 [Compound 14a, [3α,5α,17(20)Z]-3-Hydroxypregn-17(20)-ene-21-nitrile]			2.18 ± 0.19	3.28 ± 0.37	0.29 ± 0.32	3.98 ± 0.25	25 ± 3	anesthetic activity in tadpoles ([1]; LRR and LSR): lack of anesthetic activity; Tadpole LRR EC50 ([1]; loss of righting reflex, ± SEM): None; Tadpole LSR EC50 [1, 7]: None; fold stronger [35S]-TBPS displacement than 17a ([3]; relative to C-11 MeO (17a)): about 2 fold; fold stronger [35S]-TBPS displacement than 6a ([3]; relative to C-11 carbonyl (6a)): about 5 fold
C[C@]12CC[C@@H](O)C[C@@H]1CC[C@@H]1[C@@H]2C(=O)C[C@]2(C)/C(=C/C#N)CC[C@@H]12 [Compound 6b, [3α,5α,17(20)E]-3-Hydroxy-11-oxopregn-17(20)-ene-2′-nitrile]	9150 ± 5370	17300 ± 170						
C[C@]12CC[C@@H](O)C[C@H]1CC[C@@H]1[C@@H]2CC[C@]2(C)/C(=C\C#N)CC[C@@H]12 [Compound 15a, [3α,5β,17(20)Z]-3-Hydroxypregn-17(20)-ene-21-nitrile]	472 ± 46	1000	1.32 ± 0.03	5.00 ± 0.30	0.03 ± 0.02	6.82 ± 0.68	56 ± 10	

— patent US9388210B2, “Neuroactive 17(20)-Z-vinylcyano-substituted steroids, prodrugs thereof, and methods of treatment using same” (priority 2011, dated 2016)
